Reference: PubChem BioAssay AID220 (DTP/NCI, 2004)
Several values for one entry are separate records, joined by “and”; a condition that tells them apart may be missing. Identical values can stand only once. Inconclusive results are not listed.

Test system: CD8F1 mice, subcutaneous mammary adenocarcinoma, T/C%
Assay: NCI In Vivo Anticancer Drug Screen. Data for tumor model Mammary Adenocarcinoma CD8F1 (subcutaneous) in CD8F1
Conditions: higher = larger tumour
Outline: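 Mice carrying transplanted tumors received test compound, and survival or tumor size was recorded. Each value is the treated-group measurement divided by the corresponding measurement in vehicle-dosed controls.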

[1] = endpoint: median tumor weight (est.), dose: 50.0 mg/kg/injection, schedule: Q07DX005 (ip), vehicle: Klucel (hydroxypropylcellulose) (HPC)
[2] = endpoint: median tumor weight (est.), dose: 100.0 mg/kg/injection, schedule: Q07DX005 (ip), vehicle: Klucel (hydroxypropylcellulose) (HPC)
[3] = endpoint: median tumor weight (est.), dose: 200.0 mg/kg/injection, schedule: Q07DX005 (ip), vehicle: Klucel (hydroxypropylcellulose) (HPC)
[4] = endpoint: median tumor weight (est.), dose: 400.0 mg/kg/injection, schedule: Q07DX005 (ip), vehicle: Klucel (hydroxypropylcellulose) (HPC)
[5] = endpoint: median tumor weight (est.), dose: 25.0 mg/kg/injection, schedule: Q07DX005 (ip), vehicle: Klucel (hydroxypropylcellulose) (HPC)
[6] = endpoint: median tumor weight (est.), dose: 25.0 mg/kg/injection, schedule: Q07DX005 (ip), vehicle: saline
[7] = endpoint: median tumor weight (est.), dose: 50.0 mg/kg/injection, schedule: Q07DX005 (ip), vehicle: saline
[8] = endpoint: median tumor weight (est.), dose: 100.0 mg/kg/injection, schedule: Q07DX005 (ip), vehicle: saline
[9] = endpoint: median tumor weight (est.), dose: 200.0 mg/kg/injection, schedule: Q07DX005 (ip), vehicle: saline
[10] = endpoint: median tumor weight (est.), dose: 400.0 mg/kg/injection, schedule: Q07DX005 (ip), vehicle: saline
[11] = endpoint: median tumor weight (est.), dose: 6.25 mg/kg/injection, schedule: Q07DX005 (ip), vehicle: saline with Tween-80
[12] = endpoint: median tumor weight (est.), dose: 12.5 mg/kg/injection, schedule: Q07DX005 (ip), vehicle: saline with Tween-80
[13] = endpoint: median tumor weight (est.), dose: 25.0 mg/kg/injection, schedule: Q07DX005 (ip), vehicle: saline with Tween-80
[14] = endpoint: median tumor weight (est.), dose: 50.0 mg/kg/injection, schedule: Q07DX005 (ip), vehicle: saline with Tween-80
[15] = endpoint: median tumor weight (est.), dose: 100.0 mg/kg/injection, schedule: Q07DX005 (ip), vehicle: saline with Tween-80
[16] = endpoint: median tumor weight (est.), dose: 200.0 mg/kg/injection, schedule: Q07DX005 (ip), vehicle: saline with Tween-80
[17] = endpoint: median tumor weight (est.), dose: 400.0 mg/kg/injection, schedule: Q07DX005 (ip), vehicle: saline with Tween-80
[18] = endpoint: median tumor weight (est.), dose: 12.5 mg/kg/injection, schedule: Q07DX005 (ip), vehicle: saline
[19] = endpoint: median tumor weight (est.), dose: 12.5 mg/kg/injection, schedule: Q07DX005 (ip), vehicle: Klucel (hydroxypropylcellulose) (HPC)

CCN(CC)CC[n+]1ccc2c(C)c3[nH]c4ccc(O)cc4c3c(C)c2c1
T/C (endpoint: median tumor weight change, dose: 7.5 mg/kg/injection, schedule: Q01DX001 (ip), vehicle: suspension in saline): 83 % of control | T/C (endpoint: median tumor weight change, dose: 15.0 mg/kg/injection, schedule: Q01DX001 (ip), vehicle: suspension in saline): 72 % of control and 75 % of control | T/C (endpoint: median tumor weight change, dose: 15.6 mg/kg/injection, schedule: Q01DX001 (ip), vehicle: suspension in saline): 78 % of control | T/C (endpoint: median tumor weight change, dose: 31.0 mg/kg/injection, schedule: Q01DX001 (ip), vehicle: suspension in saline): 57 % of control | T/C (endpoint: median tumor weight change, dose: 60.0 mg/kg/injection, schedule: Q01DX001 (ip), vehicle: suspension in saline): 7 % of control and 26 % of control | T/C (endpoint: median tumor weight change, dose: 62.0 mg/kg/injection, schedule: Q01DX001 (ip), vehicle: suspension in saline): 3 % of control

NC(=O)c1ncn(C2OC(CO)C(O)C2O)c1O (stereo unspecified)
T/C [1]: 85 % of control | T/C [2]: 105 % of control | T/C [3]: 72 % of control | T/C [4]: 83 % of control

OC(CBr)C(O)C(O)C(O)CBr (stereo unspecified)
T/C (endpoint: mean tumor weight, dose: 100.0 mg/kg/injection, schedule: Q01DX009 (ip), vehicle: saline): 164 % of control | T/C (endpoint: mean tumor weight, dose: 150.0 mg/kg/injection, schedule: Q01DX009 (ip), vehicle: saline): 89 % of control | T/C (endpoint: mean tumor weight, dose: 200.0 mg/kg/injection, schedule: Q01DX009 (ip), vehicle: saline): 69 % of control | T/C (endpoint: mean tumor weight, dose: 300.0 mg/kg/injection, schedule: Q01DX009 (ip), vehicle: saline): 49 % of control | T/C (endpoint: mean tumor weight, dose: 400.0 mg/kg/injection, schedule: Q01DX009 (ip), vehicle: saline): 53 % of control | T/C (endpoint: mean tumor weight, dose: 500.0 mg/kg/injection, schedule: Q01DX009 (ip), vehicle: saline): 38 % of control | T/C [5]: 49 % of control | T/C [6]: 84 % of control | T/C [7]: 32 % of control | T/C [2]: 31 % of control | T/C [8]: 41 % of control | T/C [3]: 2 % of control | T/C [9]: 28 % of control | T/C [10]: 7 % of control | T/C (endpoint: median tumor weight (est.), dose: 1200.0 mg/kg/injection, schedule: Q07DX005 (ip), vehicle: Klucel (hydroxypropylcellulose) (HPC)): 13 % of control | T/C (endpoint: median tumor weight change, dose: 150.0 mg/kg/injection, schedule: Q01DX001 (ip), vehicle: Klucel (hydroxypropylcellulose) (HPC)): 95 % of control | T/C (endpoint: median tumor weight change, dose: 300.0 mg/kg/injection, schedule: Q01DX001 (ip), vehicle: Klucel (hydroxypropylcellulose) (HPC)): 39 % of control | T/C (endpoint: median tumor weight change, dose: 600.0 mg/kg/injection, schedule: Q01DX001 (ip), vehicle: Klucel (hydroxypropylcellulose) (HPC)): 51 % of control

C1CN1c1nc(N2CC2)nc(N2CC2)n1
T/C (endpoint: median tumor weight (est.), dose: 0.12 mg/kg/injection, schedule: Q07DX005 (ip), vehicle: saline): 64 % of control and 86 % of control | T/C (endpoint: median tumor weight (est.), dose: 0.25 mg/kg/injection, schedule: Q07DX005 (ip), vehicle: saline): 23 % of control and 28 % of control | T/C (endpoint: median tumor weight (est.), dose: 0.5 mg/kg/injection, schedule: Q07DX005 (ip), vehicle: saline): 6 % of control and 10 % of control | T/C (endpoint: median tumor weight (est.), dose: 1.0 mg/kg/injection, schedule: Q07DX005 (ip), vehicle: saline): 1 % of control | T/C (endpoint: median tumor weight change, dose: 0.62 mg/kg/injection, schedule: Q01DX001 (ip), vehicle: suspension in saline): 18 % of control | T/C (endpoint: median tumor weight change, dose: 2.5 mg/kg/injection, schedule: Q01DX001 (ip), vehicle: suspension in saline): -17 % of control and -41 % of control

CSc1ccc2c(c1)C(N1CCN(C)CC1)Cc1ccccc1S2 (stereo unspecified)
T/C (endpoint: median tumor weight (est.), dose: 3.12 mg/kg/injection, schedule: Q07DX005 (ip), vehicle: saline with Tween-80): 104 % of control | T/C [11]: 95 % of control | T/C [12]: 63 % of control | T/C [13]: 53 % of control | T/C [14]: 104 % of control

O=c1cnn(C2OC(CO)C(O)C2O)c(=O)[nH]1 (stereo unspecified)
T/C (endpoint: mean tumor weight, dose: 125.0 mg/kg/injection, schedule: Q07DX004 (ip), vehicle: saline): 67 % of control | T/C (endpoint: mean tumor weight, dose: 250.0 mg/kg/injection, schedule: Q07DX004 (ip), vehicle: saline): 49 % of control | T/C [15]: 63 % of control | T/C [8]: 17 % of control | T/C [16]: 95 % of control | T/C [9]: 63 % of control | T/C [17]: 53 % of control | T/C [10]: 41 % of control | T/C (endpoint: median tumor weight (est.), dose: 800.0 mg/kg/injection, schedule: Q07DX005 (ip), vehicle: saline with Tween-80): 66 % of control | T/C (endpoint: median tumor weight (est.), dose: 800.0 mg/kg/injection, schedule: Q07DX005 (ip), vehicle: saline): 64 % of control | T/C (endpoint: median tumor weight (est.), dose: 1600.0 mg/kg/injection, schedule: Q07DX005 (ip), vehicle: saline with Tween-80): 68 % of control | T/C (endpoint: median tumor weight (est.), dose: 3200.0 mg/kg/injection, schedule: Q07DX005 (ip), vehicle: saline with Tween-80): 54 % of control | T/C (endpoint: median tumor weight (est.), dose: 3200.0 mg/kg/injection, schedule: Q07DX005 (ip), vehicle: saline): 76 % of control

c1ccc([C@H]2CN3CCSC3=N2)cc1
T/C (endpoint: mean tumor weight, dose: 12.5 mg/kg/injection, schedule: Q07DX005 (ip), vehicle: saline): 107 % of control | T/C (endpoint: mean tumor weight, dose: 25.0 mg/kg/injection, schedule: Q07DX005 (ip), vehicle: saline): 105 % of control | T/C [18]: 92 % of control

O=c1[nH]c(=O)n(C2CC(O)C(CO)O2)cc1C(F)(F)F (stereo unspecified)
T/C (endpoint: mean tumor weight, dose: 125.0 mg/kg/injection, schedule: Q07DX005 (ip), vehicle: saline): 65 % of control | T/C (endpoint: mean tumor weight, dose: 250.0 mg/kg/injection, schedule: Q07DX005 (ip), vehicle: saline): 84 % of control | T/C (endpoint: mean tumor weight, dose: 250.0 mg/kg/injection, schedule: Q07DX008 (ip), vehicle: saline): 184 % of control | T/C (endpoint: mean tumor weight, dose: 500.0 mg/kg/injection, schedule: Q07DX005 (ip), vehicle: saline): 59 % of control | T/C (endpoint: mean tumor weight, dose: 500.0 mg/kg/injection, schedule: Q07DX008 (ip), vehicle: saline): 55 % of control | T/C (endpoint: mean tumor weight, dose: 750.0 mg/kg/injection, schedule: Q07DX008 (ip), vehicle: saline): 68 % of control | T/C (endpoint: median tumor weight (est.), dose: 12.5 mg/kg/injection, schedule: Q07DX005 (ip), vehicle: suspension in saline): 28 % of control | T/C (endpoint: median tumor weight (est.), dose: 250.0 mg/kg/injection, schedule: Q07DX005 (ip), vehicle: suspension in saline): 100 % of control | T/C (endpoint: median tumor weight (est.), dose: 500.0 mg/kg/injection, schedule: Q07DX005 (ip), vehicle: suspension in saline): 26 % of control

COC1C(CO)OC(n2cnc3c(=S)nc(N)[nH]c32)C1O (stereo unspecified)
T/C [19]: 109 % of control | T/C [5]: 116 % of control | T/C [1]: 112 % of control | T/C [2]: 79 % of control | T/C [3]: 28 % of control | T/C [4]: 22 % of control

C[CH2][Sn]([CH2]C)([CH2]C(=O)OC)[CH2]C(=O)OC
T/C (endpoint: median tumor weight change, dose: 16.0 mg/kg/injection, schedule: Q01DX001 (ip), vehicle: saline with Tween-80): 78 % of control

CC1(C)OC2C(COC(=O)c3ccc([N+](=O)[O-])cc3)OC(NC(=O)N(CCCl)N=O)C2O1 (stereo unspecified)
T/C (endpoint: median tumor weight (est.), dose: 1.25 mg/kg/injection, schedule: Q07DX005 (ip), vehicle: saline with Tween-80): 46 % of control | T/C [13]: 51 % of control | T/C [14]: 16 % of control | T/C [15]: 36 % of control

O=C(Nc1ccc(N=C=S)cc1Cl)c1cc(Cl)cc(Cl)c1O
T/C [19]: 79 % of control | T/C [18]: 118 % of control | T/C [5]: 49 % of control | T/C [6]: 96 % of control | T/C [1]: 26 % of control | T/C [7]: 111 % of control | T/C [8]: 78 % of control

COC(=O)C(F)C(Br)C(=O)OC (stereo unspecified)
T/C [11]: 61 % of control | T/C [12]: 87 % of control | T/C [13]: 106 % of control | T/C [14]: 74 % of control | T/C [15]: 77 % of control

N#CCCSC(=S)C1CCCC1=N (stereo unspecified)
T/C (endpoint: median tumor weight change, dose: 125.0 mg/kg/injection, schedule: Q01DX001 (ip), vehicle: saline with Tween-80): 44 % of control | T/C (endpoint: median tumor weight change, dose: 250.0 mg/kg/injection, schedule: Q01DX001 (ip), vehicle: saline with Tween-80): 98 % of control | T/C (endpoint: median tumor weight change, dose: 500.0 mg/kg/injection, schedule: Q01DX001 (ip), vehicle: saline with Tween-80): 86 % of control and 108 % of control

CC(=Nc1ccccc1)C1=C(O)C(Cc2ccccc2)NC1=O (stereo unspecified)
T/C [12]: 218 % of control and 100 % of control | T/C [14]: 89 % of control | T/C [16]: 211 % of control and 85 % of control | T/C [17]: 39 % of control and 62 % of control

c1cc(OCC2CO2)ccc1OCC1CO1 (stereo unspecified)
T/C (endpoint: median tumor weight change, dose: 125.0 mg/kg/injection, schedule: Q01DX001 (ip), vehicle: Klucel (hydroxypropylcellulose) (HPC)): 92 % of control | T/C (endpoint: median tumor weight change, dose: 250.0 mg/kg/injection, schedule: Q01DX001 (ip), vehicle: Klucel (hydroxypropylcellulose) (HPC)): 113 % of control
